# Assay results from patent publication US6280773A, “Optimally stabilized microgranule comprising 5-pyrrolyl-2-pyridylmethylsulfinylbenzimidazole derivative” (IL Yang Pharm. Co., Ltd., priority 1998, dated 2001).
# Where two headings read alike, the source gives them in different places.
# Columns and labels:
# physchem = type: physicochemical; settings: for remaining at 360 h: solid, 75% relative humidity, read-out: Content of the Active Ingredient after 15 days
# Protocol: . Then, the content of the active ingredient not decomposed was analyzed using a high performance liquid chromatography. The sample containing only the active ingredient without a stabilizer was used as a control.
# <Conditions for High Performance Liquid Chromatography>
# Column: μ-Bondapak C18 (4.6×250 mm) or the like
# Detector: Absorption photometer in ultraviolet part (wavelength: 280 nm)
# Mobile Phase: acetonitrile/phosphate buffer (pH 7.8)=45/55, v/v
# [1] = Stability of the microgranule prepared in the presence of a binding agent; type: physicochemical; settings: microgranules of Table 3
# Protocol: Microgranules were prepared according to the information represented in the following Table 3 using the stabilizers in a mole ratio of 1:1 with respect to the active ingredient (IY-81149) and using hydroxypropylmethylcellulose as a binding agent. A fluidized-bed granulator (SFC-MINI, FREUND. CO., LTD., Japan) by which the contact with the ambient moisture can be excluded and preparation and dryness of the granule can be simultaneously carried out in a short time was used. That is, the active ingredient and stabilizer were introduced into a chamber of the fluidized-bed granulator in the amounts shown in Table 3. Then, the binding agent-containing solution was sprayed under the influx air temperature (65° C.) of the chamber, during which the mixture of the active ingredient and stabilizer in the chamber was maintained at a temperature of 40° C. or less. The binding agent was used in an amount of 7% by weight with respect to the granule finally obtained, and the solvent water was used in an amount to dilute the binding agent by 15 times. Also, the total amount of the active ingredient and stabilizer to be introduced into the chamber was adjusted to 300 g. The average particle diameter of the microgranule prepared by appropriately controlling the spray rate and temperature was 0.8 mm.
Structure (SMILES),stabilizing effect upon the active ingredient of the present invention (physchem),"Content of the Active Ingredient, initial (physchem; stabilizer not used (control)) [%]","Content of the Active Ingredient, initial (physchem; with Al(OH)3, mole ratio 1:1) [%]","Content of the Active Ingredient, initial (physchem; with Arginine, mole ratio 1:1) [%]","Content of the Active Ingredient, initial (physchem; with Histidine, mole ratio 1:1) [%]","Content of the Active Ingredient, initial (physchem; with K2 CO3, mole ratio 1:1) [%]","Content of the Active Ingredient, initial (physchem; with K2 HPO4, mole ratio 1:1) [%]","Content of the Active Ingredient, initial (physchem; with KHCO3, mole ratio 1:1) [%]","Content of the Active Ingredient, initial (physchem; with Lysine, mole ratio 1:1) [%]","Content of the Active Ingredient, initial (physchem; with Mg(OH)2, mole ratio 1:1) [%]","Content of the Active Ingredient, initial (physchem; with Na2 CO3, mole ratio 1:1) [%]","Content of the Active Ingredient, initial (physchem; with Na2 HPO4, mole ratio 1:1) [%]","Content of the Active Ingredient, initial (physchem; with NaHCO3, mole ratio 1:1) [%]",further results
"[OH][Al]([OH])[OH] [Al(OH)3, aluminum hydroxide]",much less stabilizing effect than magnesium hydroxide,–,–,–,–,–,–,–,–,–,–,–,–,–
COc1ccnc(C[S+]([O-])c2nc3cc(-n4cccc4)ccc3[nH]2)c1C (centres unmarked) [IY-81149],–,100.1,99.6,99.2,100.6,100.5,100.0,100.3,100.6,99.8,99.4,99.2,98.9,–
"NCCCC[C@H](N)C(=O)O [Lysine, lysine]",–,–,–,–,–,–,–,–,–,–,–,–,–,stabilizing effect upon the active ingredient of the present invention (physchem; compared with the other stabilizers (Examples 1 and 2)): much less stabilizing effect than magnesium hydroxide
"[Mg+2].[OH-].[OH-] [Mg(OH)2, magnesium hydroxide]",superior stabilizing effect,–,–,–,–,–,–,–,–,–,–,–,–,stabilizing effect compared with the other stabilizers [1]: superior stabilizing effect
"COc1ccc2[nH]c([S+]([O-])Cc3ncc(C)c(OC)c3C)nc2c1 (centres unmarked) [Omeprazole, omeprazole, reference compound]",–,99.3,99.6,99.1,99.7,100.0,99.4,99.9,99.2,100.2,100.1,99.8,99.7,"order of stabilizing effect of the tested stabilizers (physchem; mole ratio 1:1, 15 days, 40° C., relative humidity of 75%): Na2 HPO4 >NaHCO3 >Mg(OH)2 >arginine>Na2CO3 >K2 HPO4 >Al(OH)3 >histidine>K2 CO3 >lysine>KHCO3; remaining at 360 h (physchem; stabilizer not used (control), 40° C., relative humidity of 75%): 26.7%; remaining at 360 h (physchem; with Al(OH)3, mole ratio 1:1, 40° C., relative humidity of 75%): 67.6%; remaining at 360 h (physchem; with Arginine, mole ratio 1:1, 40° C., relative humidity of 75%): 76%; remaining at 360 h (physchem; with Histidine, mole ratio 1:1, 40° C., relative humidity of 75%): 67.1%; remaining at 360 h (physchem; with K2 CO3, mole ratio 1:1, 40° C., relative humidity of 75%): 63.9%; remaining at 360 h (physchem; with K2 HPO4, mole ratio 1:1, 40° C., relative humidity of 75%): 70.7%; remaining at 360 h (physchem; with KHCO3, mole ratio 1:1, 40° C., relative humidity of 75%): 59.4%; remaining at 360 h (physchem; with Lysine, mole ratio 1:1, 40° C., relative humidity of 75%): 60.3%; remaining at 360 h (physchem; with Mg(OH)2, mole ratio 1:1, 40° C., relative humidity of 75%): 86.1%; remaining at 360 h (physchem; with Na2 CO3, mole ratio 1:1, 40° C., relative humidity of 75%): 75.3%; remaining at 360 h (physchem; with Na2 HPO4, mole ratio 1:1, 40° C., relative humidity of 75%): 94%; remaining at 360 h (physchem; with NaHCO3, mole ratio 1:1, 40° C., relative humidity of 75%): 87.5%"
